Laboratory results as given in ChEMBL document CHEMBL5260810, “Inhibition of bromodomain-containing protein 9 for the prevention of epigenetically-defined drug resistance” (Bioorg Med Chem Lett, 2017).
The source made the active and inactive calls.

Tests used:
A2058 = test: Antiproliferative activity against human A2058 cells assessed as reduction in colony formation upto 20 uM supplemented with fresh medium containing compound every 3 days for 9 days by MTT staining based clonogenic assay; assay type: functional, cell-based; conditions: time 9.0 day
NCI-H23 = test: Antiproliferative activity against human NCI-H23 cells assessed as reduction in colony formation up to 20 uM supplemented with fresh medium containing compound every 3 days for 9 days by MTT staining based clonogenic assay; assay type: functional, cell-based; conditions: time 9.0 day
NCI-H460 = test: Antiproliferative activity against human NCI-H460 cells assessed as reduction in colony formation up to 20 uM supplemented with fresh medium containing compound every 3 days for 9 days by MTT staining based clonogenic assay; assay type: functional, cell-based; conditions: time 9.0 day
[1] = Cytotoxicity against human NCE-G 141 cells measured after 3 days; assay type: functional, cell-based; conditions: NCE-G 141, 72 h
[2] = Cytotoxicity against human NCE-G 84 cells measured after 3 days; assay type: functional, cell-based; conditions: NCE-G 84, 72 h
EOL1 = test: Cytotoxicity against human EOL1 cells measured after 3 days; assay type: functional, cell-based; conditions: EOL1, 72 h
[3] = Cytotoxicity against human NTERA-2 cells after 8 days; assay type: functional, cell-based; conditions: NTERA2, 192 h
BJAB = test: Cytotoxicity against human BJAB cells measured after 3 days; assay type: functional, cell-based; conditions: 72 h
[4] = Cytotoxicity against human HCC15 cells after 8 days; assay type: functional, cell-based; conditions: HCC15, 192 h
CAL-85-1 = test: Cytotoxicity against human CAL-85-1 cells measured after 3 days; assay type: functional, cell-based; conditions: CAL-85-1, 72 h
TMD8 = test: Cytotoxicity against human TMD8 cells measured after 3 days; assay type: functional, cell-based; conditions: TMD8, 72 h
NCI-H1793 = test: Cytotoxicity against human NCI-H1793 cells measured after 8 days; assay type: functional, cell-based; conditions: NCI-H1793, 192 h
[5] = Cytotoxicity against human KMS-34 cells measured after 3 days; assay type: functional, cell-based; conditions: KMS-34, 72 h
TOV112D = test: Cytotoxicity against human TOV112D cells measured after 3 days; assay type: functional, cell-based; conditions: 72 h
[6] = molecular target: Bromodomain-containing protein 4 (Homo sapiens, UniProt O60885); test: Binding affinity to BRD4 in human PC-9 cell lysate assessed as increase in thermal stabilization at 2 uM at 38 to 71 degreeC measured after 30 mins by CETSA; assay type: subcellular
MOLM-13 = test: Cytotoxicity against human MOLM-13 cells measured after 3 days; assay type: functional, cell-based; conditions: MOLM-13, 72 h
[7] = Cytotoxicity against human OCI-M2 cells measured after 3 days; assay type: functional, cell-based; conditions: OCI-M2, 72 h
SNU-387 = test: Cytotoxicity against human SNU-387 cells measured after 3 days; assay type: functional, cell-based; conditions: SNU-387, 72 h
SNU-398 = test: Cytotoxicity against human SNU-398 cells measured after 3 days; assay type: functional, cell-based; conditions: SNU-398, 72 h
[8] = Cytotoxicity against human OVCAR433 cells measured after 3 days; assay type: functional, cell-based; conditions: OVCAR433, 72 h
[9] = molecular target: T1, Bromodomain-containing protein 9 (Homo sapiens) (UniProt Q9H8M2); test: Binding affinity to BRD9 in human PC-9 cell lysate assessed as increase in thermal stabilization at 2 uM at 44 to 50 degreeC measured after 30 mins by CETSA; assay type: subcellular
T1 sequence (whole entry): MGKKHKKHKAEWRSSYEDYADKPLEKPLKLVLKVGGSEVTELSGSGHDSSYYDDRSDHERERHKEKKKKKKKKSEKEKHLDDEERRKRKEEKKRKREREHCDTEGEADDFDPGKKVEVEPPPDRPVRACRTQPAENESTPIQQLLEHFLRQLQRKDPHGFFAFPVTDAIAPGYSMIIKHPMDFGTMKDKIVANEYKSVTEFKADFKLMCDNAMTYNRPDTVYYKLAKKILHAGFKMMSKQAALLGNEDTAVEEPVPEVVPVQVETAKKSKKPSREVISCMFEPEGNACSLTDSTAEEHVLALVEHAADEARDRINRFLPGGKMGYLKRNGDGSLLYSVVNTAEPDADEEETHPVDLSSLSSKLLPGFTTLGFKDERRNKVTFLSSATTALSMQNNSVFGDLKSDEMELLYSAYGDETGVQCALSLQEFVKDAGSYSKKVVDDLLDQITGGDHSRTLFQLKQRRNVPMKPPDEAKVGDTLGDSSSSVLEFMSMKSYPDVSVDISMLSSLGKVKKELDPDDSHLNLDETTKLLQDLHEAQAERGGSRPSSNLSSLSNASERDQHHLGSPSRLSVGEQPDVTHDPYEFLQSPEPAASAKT

MDA-MB-415 = test: Cytotoxicity against human MDA-MB-415 cells measured after 8 days; assay type: functional, cell-based; conditions: MDA-MB-415, 192 h
NALM-6 = test: Cytotoxicity against human NALM-6 cells measured after 3 days; assay type: functional, cell-based; conditions: NALM-6, 72 h
[10] = Cytotoxicity against human NCE-G 59 cells measured after 3 days; assay type: functional, cell-based; conditions: NCE-G 59, 72 h
[11] = Cytotoxicity against human HuH-1 cells measured after 3 days; assay type: functional, cell-based; conditions: HuH-1, 72 h
[12] = Cytotoxicity against human MOR cells measured after 3 days; assay type: functional, cell-based; conditions: 72 h
OAW-42 = test: Cytotoxicity against human OAW-42 cells measured after 3 days; assay type: functional, cell-based; conditions: OAW-42, 72 h
[13] = Cytotoxicity against human BM-1604 cells measured after 3 days; assay type: functional, cell-based; conditions: BM-1604, 72 h
[14] = Cytotoxicity against human RKN cells measured after 3 days; assay type: functional, cell-based; conditions: 72 h
HCC1143 = test: Cytotoxicity against human HCC1143 cells measured after 3 days; assay type: functional, cell-based; conditions: HCC1143, 72 h
HBL-100 = test: Cytotoxicity against human HBL-100 cells measured after 8 days; assay type: functional, cell-based; conditions: HBL-100, 192 h
OVCAR-3 = test: Cytotoxicity against human OVCAR-3 cells measured after 3 days; assay type: functional, cell-based; conditions: OVCAR-3, 72 h
HepG2 = test: Cytotoxicity against human HepG2 cells measured after 3 days; assay type: functional, cell-based; conditions: HepG2, 72 h
SUM149PT = test: Cytotoxicity against human SUM149PT cells measured after 3 days; assay type: functional, cell-based; conditions: 72 h
[15] = Cytotoxicity against human NCE-G 124 cells measured after 3 days; assay type: functional, cell-based; conditions: NCE-G 124, 72 h
SU-DHL-6 = test: Cytotoxicity against human SU-DHL-6 cells measured after 3 days; assay type: functional, cell-based; conditions: SU-DHL-6, 72 h
KMS-12-BM = test: Cytotoxicity against human KMS-12-BM cells measured after 3 days; assay type: functional, cell-based; conditions: 72 h
Ramos = test: Cytotoxicity against human Ramos cells measured after 3 days; assay type: functional, cell-based; conditions: 72 h
[16] = Cytotoxicity against human OVSAHO cells measured after 3 days; assay type: functional, cell-based; conditions: 72 h
[17] = Cytotoxicity against human HLF cells measured after 3 days; assay type: functional, cell-based; conditions: 72 h
SKM-1 = test: Cytotoxicity against human SKM-1 cells measured after 3 days; assay type: functional, cell-based; conditions: SKM-1, 72 h
Calu-6 = test: Cytotoxicity against human Calu-6 cells after 8 days; assay type: functional, cell-based; conditions: Calu-6, 192 h

C/C=C/Cn1cc(-c2ccc(C(C)(C)O)cc2OC)c2cc[nH]c2c1=O
inactive: Activity (A2058) | Activity (NCI-H23) | Activity (NCI-H460)

C/C=C/Cn1cc(-c2cc(OC)c(C(=O)N3CCOCC3)cc2OC)c2cc(C)[nH]c2c1=O
inactive: Activity [6]
5 µM: IC50 [1] | IC50 [2] | IC50 (EOL1) | IC50 (BJAB) | IC50 (CAL-85-1) | IC50 (TMD8) | IC50 [5] | IC50 (TOV112D) | IC50 (MOLM-13) | IC50 [7] | IC50 (SNU-387) | IC50 (SNU-398) | IC50 [8] | IC50 (NALM-6) | IC50 [10] | IC50 [11] | IC50 [12] | IC50 (OAW-42) | IC50 [13] | IC50 [14] | IC50 (HCC1143) | IC50 (OVCAR-3) | IC50 (HepG2) | IC50 (SUM149PT) | IC50 [15] | IC50 (SU-DHL-6) | IC50 (KMS-12-BM) | IC50 (Ramos) | IC50 [16] | IC50 [17] | IC50 (SKM-1)
2000 nM: IC50 [3] | IC50 [4] | IC50 (NCI-H1793) | IC50 (MDA-MB-415) | IC50 (HBL-100) | IC50 (Calu-6)
active: Activity [9]
